System: 379773-124-R-J2-PDC spheroid viability
Assay: Anticancer human tumor 379773-124-R-J2-PDC patient-derived endometrial carcinoma cell line growth inhibition [POLQ]
Details: spheroids with HUVEC and MSC; for IC50: curve of first compound; for viability, T/C: stronger effect = lower value
How it was run: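 Patient-derived tumour cells were co-cultured with HUVEC and mesenchymal stem cells as multicellular spheroids at 37 °C. They were treated with POLQ inhibitors (novobiocin, ART-558, RP6685) alone or combined with other agents. Top concentrations were at or near clinical Cmax (otherwise 10 microM; SN-38 at 1 microM), decreasing in half-log steps.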

[1] = second compound 0.0316 µM, first compound 0.0316 µM
[2] = second compound 0.0316 µM, first compound 0.1 µM
[3] = second compound 0.0316 µM, first compound 0.316 µM
[4] = second compound 0.0316 µM, first compound 1 µM
[5] = second compound 0.0316 µM, first compound 3.16 µM
[6] = second compound 0.0316 µM, first compound 10 µM
[7] = second compound 0.1 µM, first compound 0.0316 µM
[8] = second compound 0.1 µM, first compound 0.1 µM
[9] = second compound 0.1 µM, first compound 0.316 µM
[10] = second compound 0.1 µM, first compound 1 µM
[11] = second compound 0.1 µM, first compound 3.16 µM
[12] = second compound 0.1 µM, first compound 10 µM
[13] = second compound 0.316 µM, first compound 0.0316 µM
[14] = second compound 0.316 µM, first compound 0.1 µM
[15] = second compound 0.316 µM, first compound 0.316 µM
[16] = second compound 0.316 µM, first compound 1 µM
[17] = second compound 0.316 µM, first compound 3.16 µM
[18] = second compound 0.316 µM, first compound 10 µM
[19] = second compound 1 µM, first compound 0.0316 µM
[20] = second compound 1 µM, first compound 0.1 µM
[21] = second compound 1 µM, first compound 0.316 µM
[22] = second compound 1 µM, first compound 1 µM
[23] = second compound 1 µM, first compound 3.16 µM
[24] = second compound 1 µM, first compound 10 µM
[25] = second compound 3.16 µM, first compound 0.0316 µM
[26] = second compound 3.16 µM, first compound 0.1 µM
[27] = second compound 3.16 µM, first compound 0.316 µM
[28] = second compound 3.16 µM, first compound 1 µM
[29] = second compound 3.16 µM, first compound 3.16 µM
[30] = second compound 3.16 µM, first compound 10 µM
[31] = second compound 10 µM, first compound 0.0316 µM
[32] = second compound 10 µM, first compound 0.1 µM
[33] = second compound 10 µM, first compound 0.316 µM
[34] = second compound 10 µM, first compound 1 µM
[35] = second compound 10 µM, first compound 3.16 µM
[36] = second compound 10 µM, first compound 10 µM
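Note: spheroids exposed to drugs for seven days before readout.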
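Throughout, for viability, T/C: percent viability relative to DMSO vehicle control taken as 100%.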

C#Cc1c(F)ccc2cc(O)cc(-c3ncc4c(N5CC6CCC(C5)N6)nc(OCC56CCCN5CC(F)C6)nc4c3F)c12 (centres undefined) + COC1C(OC(N)=O)C(O)C(Oc2ccc3c(O)c(NC(=O)c4ccc(O)c(CC=C(C)C)c4)c(=O)oc3c2C)OC1(C)C
IC50 (second compound 0.0316 µM): > 10 µM | IC50 (second compound 0.1 µM): > 10 µM | IC50 (second compound 0.316 µM): > 10 µM | IC50 (second compound 1 µM): > 10 µM | IC50 (second compound 3.16 µM): > 10 µM | IC50 (second compound 10 µM): > 10 µM | viability, T/C [1]: 89% | viability, T/C [2]: 85.8% | viability, T/C [3]: 84.4% | viability, T/C [4]: 81% | viability, T/C [5]: 97.9% | viability, T/C [6]: 88.6% | viability, T/C [7]: 95.8% | viability, T/C [8]: 78.2% | viability, T/C [9]: 92.1% | viability, T/C [10]: 75.5% | viability, T/C [11]: 77.4% | viability, T/C [12]: 95% | viability, T/C [13]: 91% | viability, T/C [14]: 83.9% | viability, T/C [15]: 79.7% | viability, T/C [16]: 84.5% | viability, T/C [17]: 87.6% | viability, T/C [18]: 93.4% | viability, T/C [19]: 80.8% | viability, T/C [20]: 84.3% | viability, T/C [21]: 89.9% | viability, T/C [22]: 86.8% | viability, T/C [23]: 75% | viability, T/C [24]: 93.9% | viability, T/C [25]: 78.5% | viability, T/C [26]: 81.7% | viability, T/C [27]: 90.2% | viability, T/C [28]: 78.5% | viability, T/C [29]: 89.7% | viability, T/C [30]: 96.8% | viability, T/C [31]: 75.3% | viability, T/C [32]: 85.8% | viability, T/C [33]: 103% | viability, T/C [34]: 79.4% | viability, T/C [35]: 75.8% | viability, T/C [36]: 106%

O=C(Nc1ccc(O)c(NS(=O)(=O)c2ccc(F)cc2)c1)c1ccc(-c2ccccc2)cc1 + COC1C(OC(N)=O)C(O)C(Oc2ccc3c(O)c(NC(=O)c4ccc(O)c(CC=C(C)C)c4)c(=O)oc3c2C)OC1(C)C
IC50 (second compound 0.0316 µM): > 10 µM | IC50 (second compound 0.1 µM): > 10 µM | IC50 (second compound 0.316 µM): > 10 µM | IC50 (second compound 1 µM): > 10 µM | IC50 (second compound 3.16 µM): > 10 µM | IC50 (second compound 10 µM): > 10 µM | viability, T/C [1]: 88.1% | viability, T/C [2]: 79.6% | viability, T/C [3]: 87.4% | viability, T/C [4]: 75% | viability, T/C [5]: 82.5% | viability, T/C [6]: 76.2% | viability, T/C [7]: 83.5% | viability, T/C [8]: 77.2% | viability, T/C [9]: 99.9% | viability, T/C [10]: 79.5% | viability, T/C [11]: 75.8% | viability, T/C [12]: 74% | viability, T/C [13]: 82% | viability, T/C [14]: 92.8% | viability, T/C [15]: 95.6% | viability, T/C [16]: 73.4% | viability, T/C [17]: 86.4% | viability, T/C [18]: 67.1% | viability, T/C [19]: 95.1% | viability, T/C [20]: 73.5% | viability, T/C [21]: 79.8% | viability, T/C [22]: 79% | viability, T/C [23]: 83.9% | viability, T/C [24]: 70.1% | viability, T/C [25]: 79.2% | viability, T/C [26]: 88.2% | viability, T/C [27]: 77.9% | viability, T/C [28]: 80.7% | viability, T/C [29]: 90.3% | viability, T/C [30]: 83.3% | viability, T/C [31]: 84.4% | viability, T/C [32]: 78.9% | viability, T/C [33]: 80.7% | viability, T/C [34]: 80.4% | viability, T/C [35]: 75.3% | viability, T/C [36]: 74.6%

Source: PubChem BioAssay AID1963848 (Molecular Pharmacology Branch, DTP, NCI, 2024)
